Test results taken from the kinase profiling compilation of Christmann-Franck et al. (2016).

How the values were obtained:
Experiment in all cases: KINOMEscan competition binding
Conditions in all cases: compound 10.0 µM
[1] = molecular target: MAPK8 (human) (UniProt P45983)
[2] = molecular target: BMPR2 (human) (UniProt Q13873)
[3] = molecular target: MAPK11 (human) (UniProt Q15759)
[4] = molecular target: CLK1 (human) (UniProt P49759)
[5] = molecular target: STK4 (human) (UniProt Q13043)
[6] = molecular target: MELK (human) (UniProt Q14680)
[7] = molecular target: NUAK1 (human) (UniProt O60285)
[8] = molecular target: PAK6 (human) (UniProt Q9NQU5)
[9] = molecular target: SLK (human) (UniProt Q9H2G2)
[10] = molecular target: PAK7 (human) (UniProt Q9P286)
[11] = molecular target: FYN (human) (UniProt P06241)
[12] = molecular target: MARK3 (human) (UniProt P27448)
[13] = molecular target: CSK (human) (UniProt P41240)
[14] = molecular target: MAPK12 (human) (UniProt P53778)
[15] = molecular target: AURKC (human) (UniProt Q9UQB9)
[16] = molecular target: MYLK2 (human) (UniProt Q9H1R3)
[17] = molecular target: PIK3CD (human) (UniProt O00329)
[18] = molecular target: CAMK2G (human) (UniProt Q13555)
[19] = molecular target: MERTK (human) (UniProt Q12866)
[20] = molecular target: CDK9 (human) (UniProt P50750)
[21] = molecular target: CAMK2D (human) (UniProt Q13557)
[22] = molecular target: CLK3 (human) (UniProt P49761)
[23] = molecular target: LYN (human) (UniProt P07948)
[24] = molecular target: INSRR (human) (UniProt P14616)
[25] = molecular target: EPHA8 (human) (UniProt P29322)
[26] = molecular target: NEK9 (human) (UniProt Q8TD19)
[27] = molecular target: RPS6KA4 KD2 (human) (UniProt O75676)
[28] = molecular target: MAPKAPK5 (human) (UniProt Q8IW41)
[29] = molecular target: LIMK1 (human) (UniProt P53667)
[30] = molecular target: STK32C (human) (UniProt Q86UX6)
[31] = molecular target: DCLK3 (human) (UniProt Q9C098)
[32] = molecular target: PDGFRA (human) (UniProt P16234)
[33] = molecular target: TLK2 (human) (UniProt Q86UE8)
[34] = molecular target: ADCK3 (human) (UniProt Q8NI60)
[35] = molecular target: MYO3B (human) (UniProt Q8WXR4)
[36] = molecular target: INSR (human) (UniProt P06213)
[37] = molecular target: CAMK1D (human) (UniProt Q8IU85)
[38] = molecular target: CSNK1D (human) (UniProt P48730)
[39] = molecular target: CSNK1G2 (human) (UniProt P78368)
[40] = molecular target: CSNK1G3 (human) (UniProt Q9Y6M4)

PAK7 (human), sequence (Q9P286 whole entry, looked up): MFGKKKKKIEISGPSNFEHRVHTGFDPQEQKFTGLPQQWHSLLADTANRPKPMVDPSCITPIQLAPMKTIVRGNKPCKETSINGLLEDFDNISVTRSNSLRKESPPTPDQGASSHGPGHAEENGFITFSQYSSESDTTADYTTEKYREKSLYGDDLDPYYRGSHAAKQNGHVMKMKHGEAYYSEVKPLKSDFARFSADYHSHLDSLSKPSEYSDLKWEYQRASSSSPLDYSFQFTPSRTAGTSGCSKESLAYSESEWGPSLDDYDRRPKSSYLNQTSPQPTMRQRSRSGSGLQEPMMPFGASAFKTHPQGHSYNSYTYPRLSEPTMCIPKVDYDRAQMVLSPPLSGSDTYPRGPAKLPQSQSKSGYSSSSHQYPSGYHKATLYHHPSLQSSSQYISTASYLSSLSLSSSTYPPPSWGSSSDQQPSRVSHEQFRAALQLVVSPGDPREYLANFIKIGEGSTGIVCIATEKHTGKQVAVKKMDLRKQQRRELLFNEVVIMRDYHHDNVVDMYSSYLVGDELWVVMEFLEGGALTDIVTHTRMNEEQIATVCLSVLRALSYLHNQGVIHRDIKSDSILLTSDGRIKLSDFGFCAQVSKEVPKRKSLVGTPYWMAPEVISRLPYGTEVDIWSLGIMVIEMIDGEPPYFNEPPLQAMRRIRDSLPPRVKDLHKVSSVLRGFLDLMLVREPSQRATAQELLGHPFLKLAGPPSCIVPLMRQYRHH
NEK9 (human), sequence (Q8TD19 whole entry, looked up): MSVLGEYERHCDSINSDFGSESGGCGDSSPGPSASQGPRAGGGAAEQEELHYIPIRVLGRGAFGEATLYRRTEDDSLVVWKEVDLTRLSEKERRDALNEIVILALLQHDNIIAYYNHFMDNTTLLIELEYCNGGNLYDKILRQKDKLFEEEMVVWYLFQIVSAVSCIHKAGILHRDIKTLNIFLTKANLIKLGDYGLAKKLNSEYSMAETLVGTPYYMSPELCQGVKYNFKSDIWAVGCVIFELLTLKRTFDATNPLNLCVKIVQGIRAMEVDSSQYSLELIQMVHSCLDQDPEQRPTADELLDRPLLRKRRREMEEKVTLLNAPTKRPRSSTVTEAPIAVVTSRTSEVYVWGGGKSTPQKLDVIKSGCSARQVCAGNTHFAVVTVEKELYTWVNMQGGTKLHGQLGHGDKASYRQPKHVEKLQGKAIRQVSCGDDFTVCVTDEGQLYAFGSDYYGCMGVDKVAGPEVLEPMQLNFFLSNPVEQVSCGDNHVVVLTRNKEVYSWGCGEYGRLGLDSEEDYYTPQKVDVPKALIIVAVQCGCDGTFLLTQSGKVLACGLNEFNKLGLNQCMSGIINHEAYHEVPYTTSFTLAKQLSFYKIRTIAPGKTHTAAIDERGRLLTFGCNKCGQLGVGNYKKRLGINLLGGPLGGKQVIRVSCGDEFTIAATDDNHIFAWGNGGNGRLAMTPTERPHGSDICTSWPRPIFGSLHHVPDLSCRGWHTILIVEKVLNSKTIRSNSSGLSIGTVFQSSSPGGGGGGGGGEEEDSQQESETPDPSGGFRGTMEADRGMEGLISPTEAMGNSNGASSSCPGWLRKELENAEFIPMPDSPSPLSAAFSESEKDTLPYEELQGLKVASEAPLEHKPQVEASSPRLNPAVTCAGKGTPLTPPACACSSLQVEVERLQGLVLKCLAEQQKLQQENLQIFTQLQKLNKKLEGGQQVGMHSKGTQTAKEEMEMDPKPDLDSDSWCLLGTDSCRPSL
LYN (human), sequence (P07948 whole entry, looked up): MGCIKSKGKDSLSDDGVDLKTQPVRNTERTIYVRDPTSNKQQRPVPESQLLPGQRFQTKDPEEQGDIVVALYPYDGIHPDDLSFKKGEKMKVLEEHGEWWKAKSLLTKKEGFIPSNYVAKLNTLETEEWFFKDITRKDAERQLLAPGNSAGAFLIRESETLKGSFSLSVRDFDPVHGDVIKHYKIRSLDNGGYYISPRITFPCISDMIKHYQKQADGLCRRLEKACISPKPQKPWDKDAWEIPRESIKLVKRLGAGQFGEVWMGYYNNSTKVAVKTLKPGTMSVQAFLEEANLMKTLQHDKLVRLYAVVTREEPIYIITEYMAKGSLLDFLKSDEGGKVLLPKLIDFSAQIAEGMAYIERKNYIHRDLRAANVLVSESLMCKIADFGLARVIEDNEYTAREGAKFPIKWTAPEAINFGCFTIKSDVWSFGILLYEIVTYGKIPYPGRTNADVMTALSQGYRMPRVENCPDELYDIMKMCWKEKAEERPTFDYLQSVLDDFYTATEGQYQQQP
MAPKAPK5 (human), sequence (Q8IW41 whole entry, looked up): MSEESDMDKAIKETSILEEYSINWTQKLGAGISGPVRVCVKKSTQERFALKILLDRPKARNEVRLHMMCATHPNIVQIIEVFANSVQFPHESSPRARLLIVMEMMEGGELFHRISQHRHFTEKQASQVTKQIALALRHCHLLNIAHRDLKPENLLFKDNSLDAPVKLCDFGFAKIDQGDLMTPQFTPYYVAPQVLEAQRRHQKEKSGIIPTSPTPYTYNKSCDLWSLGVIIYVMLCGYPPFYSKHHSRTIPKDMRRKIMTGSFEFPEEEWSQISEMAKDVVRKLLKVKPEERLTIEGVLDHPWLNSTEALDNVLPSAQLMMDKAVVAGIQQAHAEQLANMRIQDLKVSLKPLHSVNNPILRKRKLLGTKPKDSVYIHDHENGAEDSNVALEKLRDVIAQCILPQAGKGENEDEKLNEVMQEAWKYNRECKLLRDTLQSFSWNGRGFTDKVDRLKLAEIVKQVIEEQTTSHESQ
MAPK11 (human), sequence (Q15759 whole entry, looked up): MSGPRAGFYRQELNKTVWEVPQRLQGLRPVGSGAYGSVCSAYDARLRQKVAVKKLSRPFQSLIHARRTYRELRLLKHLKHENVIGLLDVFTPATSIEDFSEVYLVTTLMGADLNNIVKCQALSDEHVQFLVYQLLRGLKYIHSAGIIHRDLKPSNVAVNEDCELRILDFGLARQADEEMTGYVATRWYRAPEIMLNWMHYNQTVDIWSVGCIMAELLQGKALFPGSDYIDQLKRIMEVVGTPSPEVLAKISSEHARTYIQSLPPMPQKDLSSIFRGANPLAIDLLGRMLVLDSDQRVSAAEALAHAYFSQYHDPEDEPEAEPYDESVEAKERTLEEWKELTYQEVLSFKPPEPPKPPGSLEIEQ
STK32C (human), sequence (Q86UX6 whole entry, looked up): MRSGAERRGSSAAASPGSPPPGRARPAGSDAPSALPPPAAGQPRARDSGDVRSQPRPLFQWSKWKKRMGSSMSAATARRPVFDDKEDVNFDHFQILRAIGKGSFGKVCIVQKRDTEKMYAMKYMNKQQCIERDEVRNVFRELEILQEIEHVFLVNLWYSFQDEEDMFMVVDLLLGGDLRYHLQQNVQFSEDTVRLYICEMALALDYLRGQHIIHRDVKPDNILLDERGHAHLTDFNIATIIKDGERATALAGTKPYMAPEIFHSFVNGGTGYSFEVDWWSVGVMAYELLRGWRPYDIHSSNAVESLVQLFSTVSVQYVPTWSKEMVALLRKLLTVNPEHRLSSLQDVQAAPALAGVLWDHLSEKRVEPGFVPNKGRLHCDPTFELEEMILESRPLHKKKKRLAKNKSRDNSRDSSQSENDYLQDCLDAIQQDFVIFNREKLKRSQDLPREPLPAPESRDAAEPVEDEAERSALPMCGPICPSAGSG
MAPK8 (human), sequence (P45983 whole entry, looked up): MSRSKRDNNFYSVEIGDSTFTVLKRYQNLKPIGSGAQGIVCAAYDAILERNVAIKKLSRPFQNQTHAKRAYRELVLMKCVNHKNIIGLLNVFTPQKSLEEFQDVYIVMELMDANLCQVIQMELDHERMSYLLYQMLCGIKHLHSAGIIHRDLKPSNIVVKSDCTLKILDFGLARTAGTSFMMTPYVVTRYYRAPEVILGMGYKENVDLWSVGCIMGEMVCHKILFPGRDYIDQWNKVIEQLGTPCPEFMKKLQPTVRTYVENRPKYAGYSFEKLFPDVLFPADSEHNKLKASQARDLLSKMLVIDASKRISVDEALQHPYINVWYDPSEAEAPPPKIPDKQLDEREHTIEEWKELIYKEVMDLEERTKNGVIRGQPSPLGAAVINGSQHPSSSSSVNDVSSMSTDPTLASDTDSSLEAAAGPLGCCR
CLK3 (human), sequence (P49761 whole entry, looked up): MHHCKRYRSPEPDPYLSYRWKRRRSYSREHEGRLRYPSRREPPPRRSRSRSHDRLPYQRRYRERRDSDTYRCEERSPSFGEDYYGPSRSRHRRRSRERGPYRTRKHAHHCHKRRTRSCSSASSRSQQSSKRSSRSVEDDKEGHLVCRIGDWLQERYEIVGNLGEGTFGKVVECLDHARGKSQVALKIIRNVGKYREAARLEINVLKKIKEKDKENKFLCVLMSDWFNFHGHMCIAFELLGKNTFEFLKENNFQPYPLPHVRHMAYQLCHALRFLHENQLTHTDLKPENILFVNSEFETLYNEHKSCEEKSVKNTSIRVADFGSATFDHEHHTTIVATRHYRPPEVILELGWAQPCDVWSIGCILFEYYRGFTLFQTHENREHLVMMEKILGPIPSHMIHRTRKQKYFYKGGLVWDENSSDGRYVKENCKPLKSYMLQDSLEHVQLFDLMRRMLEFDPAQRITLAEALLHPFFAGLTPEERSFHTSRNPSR
STK4 (human), sequence (Q13043 whole entry, looked up): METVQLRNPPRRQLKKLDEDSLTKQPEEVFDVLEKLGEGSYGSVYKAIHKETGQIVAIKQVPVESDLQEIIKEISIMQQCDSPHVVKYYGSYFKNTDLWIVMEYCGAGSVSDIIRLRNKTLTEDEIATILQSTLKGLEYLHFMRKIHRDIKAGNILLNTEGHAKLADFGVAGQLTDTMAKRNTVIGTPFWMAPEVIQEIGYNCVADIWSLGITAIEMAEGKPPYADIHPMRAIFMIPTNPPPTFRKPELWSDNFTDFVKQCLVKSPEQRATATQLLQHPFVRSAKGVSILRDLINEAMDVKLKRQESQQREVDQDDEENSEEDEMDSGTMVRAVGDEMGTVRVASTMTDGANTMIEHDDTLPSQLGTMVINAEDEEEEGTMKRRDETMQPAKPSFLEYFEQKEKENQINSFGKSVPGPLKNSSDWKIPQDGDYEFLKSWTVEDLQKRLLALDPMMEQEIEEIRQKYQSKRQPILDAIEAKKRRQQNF

Row | SMILES | kinase still bound, per cent of control [1] | kinase still bound, per cent of control [2] | kinase still bound, per cent of control [3] | kinase still bound, per cent of control [4] | kinase still bound, per cent of control [5] | kinase still bound, per cent of control [6] | kinase still bound, per cent of control [7] | kinase still bound, per cent of control [8] | kinase still bound, per cent of control [9] | kinase still bound, per cent of control [10] | kinase still bound, per cent of control [11] | kinase still bound, per cent of control [13] | kinase still bound, per cent of control [14] | kinase still bound, per cent of control [15] | kinase still bound, per cent of control [16] | kinase still bound, per cent of control [18] | kinase still bound, per cent of control [19] | kinase still bound, per cent of control [21] | kinase still bound, per cent of control [22] | kinase still bound, per cent of control [23] | also measured
1 | CC[C@@H]1C(=O)N(C)c2cnc(Nc3ccc(C(=O)NC4CCN(C)CC4)cc3OC)nc2N1C1CCCC1 | 100% | 100% | 100% | 100% | 100% | 29% | 100% | 100% | 3% | 100% | 100% | 100% | 100% | 100% | 100% | 100% | 100% | 100% | 29% | 100% | kinase still bound, per cent of control [12]: 100%; kinase still bound, per cent of control [17]: 100%; kinase still bound, per cent of control [20]: 100%; kinase still bound, per cent of control [24]: 100%; kinase still bound, per cent of control [25]: 100%; kinase still bound, per cent of control [26]: 100%; kinase still bound, per cent of control [27]: 0%; kinase still bound, per cent of control [28]: 100%; kinase still bound, per cent of control [29]: 100%; kinase still bound, per cent of control [30]: 100%; kinase still bound, per cent of control [31]: 100%; kinase still bound, per cent of control [32]: 100%; kinase still bound, per cent of control [33]: 100%; kinase still bound, per cent of control [34]: 100%; kinase still bound, per cent of control [35]: 100%
2 | Cc1cc([C@@H](C)Nc2ccccc2C(=O)O)c2nc(N3CCOCC3)cc(=O)n2c1 | 100% | 85% | 91% | 74% | 95% | 100% | 100% | 93% | 100% | 99% | 100% | 100% | 94% | 93% | 100% | 98% | 100% | 95% | 100% | 99% | kinase still bound, per cent of control [36]: 100%; kinase still bound, per cent of control [12]: 89%; kinase still bound, per cent of control [37]: 100%; kinase still bound, per cent of control [38]: 86%; kinase still bound, per cent of control [20]: 100%; kinase still bound, per cent of control [24]: 100%; kinase still bound, per cent of control [25]: 96%; kinase still bound, per cent of control [26]: 100%; kinase still bound, per cent of control [27]: 100%; kinase still bound, per cent of control [28]: 100%; kinase still bound, per cent of control [29]: 100%; kinase still bound, per cent of control [30]: 82%; kinase still bound, per cent of control [31]: 85%; kinase still bound, per cent of control [32]: 84%; kinase still bound, per cent of control [33]: 88%; kinase still bound, per cent of control [39]: 88%; kinase still bound, per cent of control [34]: 86%; kinase still bound, per cent of control [35]: 93%; kinase still bound, per cent of control [40]: 100%
3 | O=C(O)c1ccc(Nc2ncc3c(n2)-c2ccc(Cl)cc2C(c2c(F)cccc2F)=NC3)cc1 | 100% | 26% | 99% | 63% | 85% | 81% | 67% | 79% | 80% | 93% | 17% | 15% | 97% | 20% | 100% | 98% | 3% | 95% | 14% | 25% | kinase still bound, per cent of control [36]: 59%; kinase still bound, per cent of control [12]: 100%; kinase still bound, per cent of control [37]: 98%; kinase still bound, per cent of control [17]: 88%; kinase still bound, per cent of control [24]: 100%; kinase still bound, per cent of control [25]: 99%; kinase still bound, per cent of control [26]: 100%; kinase still bound, per cent of control [27]: 100%; kinase still bound, per cent of control [28]: 100%; kinase still bound, per cent of control [29]: 85%; kinase still bound, per cent of control [30]: 50%; kinase still bound, per cent of control [31]: 92%; kinase still bound, per cent of control [32]: 56%; kinase still bound, per cent of control [33]: 83%; kinase still bound, per cent of control [39]: 66%; kinase still bound, per cent of control [34]: 88%; kinase still bound, per cent of control [35]: 100%; kinase still bound, per cent of control [40]: 93%
4 | CCOc1cc2ncc(C#N)c(Nc3ccc(OCc4ccccn4)c(Cl)c3)c2cc1NC(=O)/C=C/CN(C)C | 16% | 78% | 100% | 84% | 17% | 55% | 61% | 74% | 1.4% | 72% | 84% | 13% | 100% | 95% | 79% | 95% | 8.4% | 100% | 86% | 34% | kinase still bound, per cent of control [36]: 46%; kinase still bound, per cent of control [38]: 60%; kinase still bound, per cent of control [20]: 94%; kinase still bound, per cent of control [24]: 94%; kinase still bound, per cent of control [25]: 78%; kinase still bound, per cent of control [26]: 100%; kinase still bound, per cent of control [27]: 94%; kinase still bound, per cent of control [28]: 89%; kinase still bound, per cent of control [29]: 100%; kinase still bound, per cent of control [30]: 100%; kinase still bound, per cent of control [31]: 100%; kinase still bound, per cent of control [32]: 100%; kinase still bound, per cent of control [34]: 95%; kinase still bound, per cent of control [35]: 100%
